The target in this assay is T1, IGF-1R (Homo sapiens, UniProt P08069).
T1 construct: expressed in transfected cells
In words: Example B-1: IGF-1R Assay (PC3 cells stimulated with IGF1, AlphaLISA on cell lysates). The note with it: compound two hours, IGF1 200 ng/mL for 30 min, read-out: IC50, Biological Activity against IGF-1R (Table B1). It is filed as cell-based. The method, then:
50K PC3 cells were seeded on day 1 in 50 μL of media in 96-well plate and incubated overnight at 37° C., 5% CO2. On day 2, all cells were expected to be at 80-90% confluency. Cells were starved for two hours by changing the media to 90 μL of EMEM serum-free media and incubated for 2 hours. Next, cells were treated with 10 μL of 10× concentrated and 3× serially diluted compounds for two hours. It makes 1× of compounds in 100 μL media. This was followed by stimulation of cells with 11×IGF1 for 30 min in 10 μL of serum-free EMEM media at the final concentration of 200 ng/mL.
The media was removed and replaced by 50 μL of 1× lysis buffer from the AlphaLISA kit (with 1× of cOmplete™ protease inhibitor). The plates were sealed, and cells were allowed to lyse for 10 min in the shaker before storing the plate at −20° C. until used. The AlphaLISA assay with processed cell lysates were performed as described in the protocol. Briefly, 10 μL of the undiluted sample were loaded to 384 well Optiplates and 5 μL of the acceptor mix (as described in the AlphaLISA kit) was added to each well. The plates were sealed and briefly vortexed followed by the incubation at RT for 3 hours. In the dark, 5 μL of donor mix was added to each well. All plates were sealed and stored at RT overnight. The plates were read in EnVision reader using standard AlphaLISA settings.
Compound activity was analyzed using CBIS data analysis suite (Cheminnovation, CA). Percentage inhibition was calculated using the following formula: % I-hibition=100%×(1−(mea−RLU of test sample−mean RLU of vehicle control)/(mean-RLU of EC80 control−mean RLU of vehicle control)). The activity for representative examples of the invention is shown in the following table, wherein A: IC50≤500 nM; B: 500 nM<IC50≤2 μM; C: 2 μM<IC50≤10 μM; D: IC50>10 μM.

T1 sequence (P08069 31-1367): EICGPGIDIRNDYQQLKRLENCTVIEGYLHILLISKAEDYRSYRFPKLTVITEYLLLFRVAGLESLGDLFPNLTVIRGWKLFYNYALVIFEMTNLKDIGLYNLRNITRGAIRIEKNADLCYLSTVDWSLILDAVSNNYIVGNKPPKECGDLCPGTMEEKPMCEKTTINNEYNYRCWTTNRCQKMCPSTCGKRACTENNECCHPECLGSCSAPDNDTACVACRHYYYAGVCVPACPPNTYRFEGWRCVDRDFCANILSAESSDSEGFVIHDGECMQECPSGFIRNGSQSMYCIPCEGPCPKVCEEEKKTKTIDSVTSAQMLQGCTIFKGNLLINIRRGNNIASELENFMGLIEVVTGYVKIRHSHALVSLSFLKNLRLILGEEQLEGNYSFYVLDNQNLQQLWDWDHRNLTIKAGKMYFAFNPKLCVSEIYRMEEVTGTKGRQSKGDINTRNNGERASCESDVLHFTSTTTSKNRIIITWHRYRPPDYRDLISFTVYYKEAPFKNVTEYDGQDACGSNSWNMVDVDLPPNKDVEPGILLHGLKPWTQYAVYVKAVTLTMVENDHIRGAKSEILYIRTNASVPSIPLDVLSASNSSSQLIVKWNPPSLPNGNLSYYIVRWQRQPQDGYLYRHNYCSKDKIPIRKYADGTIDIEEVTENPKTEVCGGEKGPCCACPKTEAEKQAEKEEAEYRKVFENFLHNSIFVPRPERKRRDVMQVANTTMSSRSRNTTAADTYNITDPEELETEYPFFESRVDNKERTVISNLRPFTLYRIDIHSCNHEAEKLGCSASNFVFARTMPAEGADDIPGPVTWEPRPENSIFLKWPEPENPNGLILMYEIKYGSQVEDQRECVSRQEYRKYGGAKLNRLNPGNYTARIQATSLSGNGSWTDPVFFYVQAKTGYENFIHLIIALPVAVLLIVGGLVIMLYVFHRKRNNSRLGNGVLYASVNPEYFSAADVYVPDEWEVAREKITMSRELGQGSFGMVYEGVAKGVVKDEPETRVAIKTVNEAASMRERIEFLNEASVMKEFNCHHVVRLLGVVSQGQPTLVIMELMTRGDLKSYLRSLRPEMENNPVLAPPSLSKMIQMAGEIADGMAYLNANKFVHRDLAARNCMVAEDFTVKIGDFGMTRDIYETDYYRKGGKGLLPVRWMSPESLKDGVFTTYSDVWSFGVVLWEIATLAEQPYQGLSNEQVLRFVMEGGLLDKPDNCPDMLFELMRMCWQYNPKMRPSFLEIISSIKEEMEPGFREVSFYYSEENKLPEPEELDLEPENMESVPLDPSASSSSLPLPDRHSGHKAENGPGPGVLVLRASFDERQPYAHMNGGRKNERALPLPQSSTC

In general, IC50 refers to the concentration needed to halve the response being measured. For the compound `CC1(Nc2cc(CN3C(=O)N(c4ccc(C(C)(C)C)cc4)C(=O)C3(C)C)ccn2)CC1` [Compound 273, 3-(4-(tert-butyl)phenyl)-5,5-dimethyl-1-((2-((1-methylcyclopropyl)amino)pyridin-4-yl)methyl) imidazolidine-2,4-dione], the IC50 was at most 500 nM.
As for `COCC(C)(C)Nc1cc(CN2C(=O)N(c3ccc(C(C)(C)C)cc3)C(=O)C2(C)C)ccn1` [Compound 274, 3-(4-(tert-butyl)phenyl)-1-((2-((1-methoxy-2-methylpropan-2-yl)amino)pyridin-4-yl)methyl)-5,5-dimethylimidazolidine-2,4-dione], the figure is 500 to 2000 nM; as for `CC(C)(C)c1ccc(N2C(=O)N(Cc3ccnc(NC4COC4)c3)C(C)(C)C2=O)cc1` [Compound 275, 3-(4-(tert-butyl)phenyl)-5,5-dimethyl-1-((2-(oxetan-3-ylamino)pyridin-4-yl)methyl)imidazolidine-2,4-dione], at most 500 nM.
Turning to `CC(C)(C)c1ccc(N2C(=O)N(Cc3ccnc(NC45CC(C4)C5)c3)C(C)(C)C2=O)cc1` [Compound 276, 1-((2-(bicyclo[1.1.1]pentan-1-ylamino)pyridin-4-yl)methyl)-3-(4-(tert-butyl)phenyl)-5,5-dimethylimidazolidine-2,4-dione], the IC50 is at most 500 nM.
As for `Nc1cc(CN2C(=O)N(c3ccc(SC(F)(F)F)cc3)C(=O)[C@@H]2Cc2ccccc2)ccn1` [Compound 289, (S)-1-((2-aminopyridin-4-yl)methyl)-5-benzyl-3-(4-((trifluoromethyl)thio)phenyl)imidazolidine-2,4-dione], the figure is 500 to 2000 nM.
Turning to `CC(C)[C@H]1C(=O)N(c2ccc(SC(F)(F)F)cc2)C(=O)N1Cc1ccnc(N)c1` [Compound 290, (S)-1-((2-aminopyridin-4-yl)methyl)-5-isopropyl-3-(4-((trifluoromethyl)thio)phenyl)imidazolidine-2,4-dione], the concentration for half-maximal inhibition (IC50) was over 10000 nM.
For `Nc1cc(CN2C(=O)N(c3ccc(SC(F)(F)F)cc3)C(=O)C23CCCC3)ccn1` [Compound 291, ((2-aminopyridin-4-yl)methyl)-3-(4-((trifluoromethyl)thio)phenyl)-1,3-diazaspiro[4.4]nonane-2,4-dione], the IC50 was 500 to 2000 nM.
As for `Nc1cc(CN2C(=O)N(c3ccc(SC(F)(F)F)cc3)C(=O)C23CCC3)ccn1` [Compound 292, 5-((2-aminopyridin-4-yl)methyl)-7-(4-((trifluoromethyl)thio)phenyl)-5,7-diazaspiro[3.4]octane-6,8-dione], the figure is 500 to 2000 nM; as for `Nc1cc(CN2C(=O)N(c3ccc(SC(F)(F)F)cc3)C(=O)C23CCCCC3)ccn1` [Compound 293, 1-((2-aminopyridin-4-yl)methyl)-3-(4-((trifluoromethyl)thio)phenyl)-1,3-diazaspiro[4.5]decane-2,4-dione], 2000 to 10000 nM.
On to `Nc1cc(CN2C(=O)N(c3ccc(SC(F)(F)F)cc3)C(=O)[C@@H]2c2ccccc2)ccn1` [Compound 294, (S)-1-((2-aminopyridin-4-yl)methyl)-5-phenyl-3-(4-((trifluoromethyl)thio)phenyl)imidazolidine-2,4-dione], for which the IC50 is over 10000 nM.
As for `CC(C)[C@@H]1C(=O)N(c2ccc(SC(F)(F)F)cc2)C(=O)N1Cc1ccnc(N)c1` [Compound 295, (R)-1-((2-aminopyridin-4-yl)methyl)-5-isopropyl-3-(4-((trifluoromethyl)thio)phenyl)imidazolidine-2,4-dione], the figure is 2000 to 10000 nM.
In the case of `Nc1cc(CN2C(=O)N(c3ccc(SC(F)(F)F)cc3)C(=O)[C@@H]2C2CCCCC2)ccn1` [Compound 296, (S)-1-((2-aminopyridin-4-yl)methyl)-5-cyclohexyl-3-(4-((trifluoromethyl)thio)phenyl)imidazolidine-2,4-dione], the IC50 is over 10000 nM.
As to `CCC1(C)C(=O)N(c2ccc(SC(F)(F)F)cc2)C(=O)N1Cc1ccnc(N)c1` (centres unmarked) [Compound 297, 1-((2-aminopyridin-4-yl)methyl)-5-ethyl-5-methyl-3-(4-((trifluoromethyl)thio)phenyl)imidazolidine-2,4-dione], the IC50 is at most 500 nM.
For `CC(C)[C@H]1C(=O)N(c2ccc(S(=O)(=O)C(F)(F)F)cc2)C(=O)N1Cc1ccnc(N)c1` [Compound 300, (S)-1-((2-aminopyridin-4-yl)methyl)-5-isopropyl-3-(4-((trifluoromethyl)sulfonyl)phenyl)imidazolidine-2,4-dione] the value was 2000 to 10000 nM; for `Cn1cc(CNc2cc(CN3C(=O)N(c4ccc(SC(F)(F)F)cc4)C(=O)C3(C)C)ccn2)cn1` [Compound 301, 5,5-dimethyl-1-((2-(((1-methyl-1H-pyrazol-4-yl)methyl)amino)pyridin-4-yl)methyl)-3-(4-((trifluoromethyl)thio)phenyl)imidazolidine-2,4-dione], at most 500 nM; for `CC1(C)C(=O)N(c2ccc(SC(F)(F)F)cc2)C(=O)N1Cc1ccnc(NC(=O)C2CC3(CNC3)C2)c1` [Compound 302, N-(4-((5,5-dimethyl-2,4-dioxo-3-(4-((trifluoromethyl)thio)phenyl)imidazolidin-1-yl)methyl)pyridin-2-yl)-2-azaspiro[3.3]heptane-6-carboxamide], at most 500 nM.
As for `CC1(C)C(=O)N(c2ccc(SC(F)(F)F)cc2)C(=O)N1Cc1ccnc(NC(=O)NC2CCOC2)c1` (centres unmarked) [Compound 303, 1-(4-((5,5-dimethyl-2,4-dioxo-3-(4-((trifluoromethyl)thio)phenyl)imidazolidin-1-yl)methyl)pyridin-2-yl)-3-(tetrahydrofuran-3-yl)urea], the IC50 was at most 500 nM.
As for `CC1(C)C(=O)N(c2ccc(SC(F)(F)F)cc2)C(=O)N1Cc1ccnc(NC(=O)NC23CCC(CC2)C3)c1` [Compound 304, 1-(bicyclo[2.2.1]heptan-1-yl)-3-(4-((5,5-dimethyl-2,4-dioxo-3-(4-((trifluoromethyl)thio)phenyl)imidazolidin-1-yl)methyl)pyridin-2-yl)urea], the figure is 500 to 2000 nM; as for `CC1(C)C(=O)N(c2ccc(SC(F)(F)F)cc2)C(=O)N1Cc1ccnc(NC(=O)C2NCC23CCCCC3)c1` (centres unmarked) [Compound 305, N-(4-((5,5-dimethyl-2,4-dioxo-3-(4-((trifluoromethyl)thio)phenyl)imidazolidin-1-yl)methyl)pyridin-2-yl)-2-azaspiro[3.5]nonane-1-carboxamide], 2000 to 10000 nM; as for `CC1(C)C(=O)N(c2ccc(SC(F)(F)F)cc2)C(=O)N1Cc1ccnc(NC(=O)NC2CCOCC2)c1` [Compound 306, 1-(4-((5,5-dimethyl-2,4-dioxo-3-(4-((trifluoromethyl)thio)phenyl)imidazolidin-1-yl)methyl)pyridin-2-yl)-3-(tetrahydro-2H-pyran-4-yl)urea], at most 500 nM.
For `CC1(C)C(=O)N(c2ccc(SC(F)(F)F)cc2)C(=O)N1Cc1ccnc(NC(=O)NC2CCN(CC(F)(F)F)CC2)c1` [Compound 307, 1-(4-((5,5-dimethyl-2,4-dioxo-3-(4-((trifluoromethyl)thio)phenyl)imidazolidin-1-yl)methyl)pyridin-2-yl)-3-(1-(2,2,2-trifluoroethyl)piperidin-4-yl)urea] the value was at most 500 nM.
As for `CC1(C)C(=O)N(c2ccc(SC(F)(F)F)cc2)C(=O)N1Cc1ccnc(NC(=O)NC2COC2)c1` [Compound 308, 1-(4-((5,5-dimethyl-2,4-dioxo-3-(4-((trifluoromethyl)thio)phenyl)imidazolidin-1-yl)methyl)pyridin-2-yl)-3-(oxetan-3-yl)urea], the figure is at most 500 nM.
For the compound `CN1CCC(NC(=O)Nc2cc(CN3C(=O)N(c4ccc(SC(F)(F)F)cc4)C(=O)C3(C)C)ccn2)CC1` [Compound 309, 1-(4-((5,5-dimethyl-2,4-dioxo-3-(4-((trifluoromethyl)thio)phenyl)imidazolidin-1-yl)methyl)pyridin-2-yl)-3-(1-methylpiperidin-4-yl)urea], the IC50 is at most 500 nM.
For `CC1(C)C(=O)N(c2ccc(SC(F)(F)F)cc2)C(=O)N1Cc1ccnc(NCC2CC2)c1` [Compound 311, 1-((2-((cyclopropylmethyl)amino)pyridin-4-yl)methyl)-5,5-dimethyl-3-(4-((trifluoromethyl)thio)phenyl) imidazolidine-2,4-dione] the value was at most 500 nM; for `CC1(C)C(=O)N(c2ccc(SC(F)(F)F)cc2)C(=O)N1Cc1ccnc(NCc2ncc[nH]2)c1` [Compound 312, 1-((2-(((1H-imidazol-2-yl)methyl)amino)pyridin-4-yl)methyl)-5,5-dimethyl-3-(4-((trifluoromethyl)thio)phenyl) imidazolidine-2,4-dione], 500 to 2000 nM.
As for `CC1(C)C(=O)N(c2ccc(SC(F)(F)F)cc2)C(=O)N1Cc1ccnc(NCC(F)(F)F)c1` [Compound 313, 5,5-dimethyl-1-((2-((2,2,2-trifluoroethyl)amino)pyridin-4-yl)methyl)-3-(4-((trifluoromethyl)thio)phenyl) imidazolidine-2,4-dione], the figure is 500 to 2000 nM.

For the origin of these results see patent US20250145585A1, “HETEROCYCLIC INHIBITORS OF IGF-1R FOR TREATMENT OF DISEASE” (HORIZON THERAPEUTICS IRELAND DAC, priority 2023, published 2025).
